Assays:
[1] = The turnover kinetic parameter (kcat) evaluated for class C Q908R Beta-latctamase
[2] = biological target: Beta-lactamase TEM (Escherichia coli) (UniProt P62593); experiment: The turnover kinetic parameter (kcat) evaluated for Class A TEM-1 beta-lactamase
[3] = biological target: Beta-lactamase TEM (Escherichia coli) (UniProt P62593); experiment: The turnover kinetic parameter (kcat/Km) evaluated for class A TEM-1 Beta-latctamase
[4] = The turnover kinetic parameter (kcat/Km) evaluated for class C Q908R Beta-latctamase
[5] = The turnover kinetic parameter (Km) evaluated for Class C Q908R Beta-lactamase

Chain of Beta-lactamase TEM (Escherichia coli) (P62593 whole entry): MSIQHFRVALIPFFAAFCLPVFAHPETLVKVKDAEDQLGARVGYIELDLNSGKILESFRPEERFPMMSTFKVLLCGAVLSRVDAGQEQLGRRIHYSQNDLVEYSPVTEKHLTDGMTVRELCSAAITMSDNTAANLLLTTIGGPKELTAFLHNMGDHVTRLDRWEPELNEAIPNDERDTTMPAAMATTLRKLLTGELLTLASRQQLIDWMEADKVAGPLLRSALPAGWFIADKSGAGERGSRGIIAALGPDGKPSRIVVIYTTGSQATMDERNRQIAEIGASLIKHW

Question: Which k cat [1] does the source give for `CC(=O)OCC1=C(C(=O)O)N2C(=O)[C@@H](NC(=O)[C@@H](Cc3ccccc3)NNC(=O)OCc3ccccc3[N+](=O)[O-])C2SC1` (stereo not given in full) here?
Answer: Its k cat is 1770 s⁻¹.

Question: And the k cat [2]?
Answer: The k cat was 7.4 s⁻¹.

Question: What about the k cat/Km [3] of the same compound?
Answer: Its k cat/Km is 93000 M⁻¹ s⁻¹.

Question: What about the k cat/Km [4] of the same compound?
Answer: The k cat/Km was 2.8e+07 M⁻¹ s⁻¹.

Question: And the Km [5]?
Answer: Its Km is 62 µM.

From ChEMBL document CHEMBL1133169, “A light-inactivated antibiotic” (2000)
